# Experimental data taken from article PMC6580366 (Journal of Medicinal Chemistry, 2019).
# Where two headings read alike, the source gives them in different places.
# Legend:
# [1] = system: BCRP/MDCK; conditions: 5 μM; cited from earlier work
# [2] = dog, 1 μM; cited from earlier work
# [3] = human, 1 μM; cited from earlier work
# [4] = system: CYP mRNA expression (CYP1A2, CYP2B, CYP3A); conditions: 0.5 to 50 μM, 48 h
# [5] = system: BV2 microglia cell line; conditions: cited from earlier work
# [6] = system: P-gp/Caco-2; conditions: 5 μM; cited from earlier work
smiles,measurement,setting,value
"CN1CCN(c2cc(-c3ccncc3)c(-c3ccc4ccccc4c3)nn2)CC1 [Compound 11, 6-(4-Methylpiperazin-1-yl)-3-(naphthalen-2-yl)-4-(pyridin-4-yl)pyridazine]",Permeability MDCK,[1],highly permeable
same,Pump substrate status BCRP,[1],Not substrate
same,Hepatocyte stability T1/2,[2],"Human, T1/2 > 120 min; dog, T1/2 > 120 min (see ref ([14]))"
same,Hepatocyte stability T1/2,[3],"Human, T1/2 > 120 min; dog, T1/2 > 120 min (see ref ([14]))"
same,CYP induction,[4],Negative (see Experimental Section)
same,"cell proliferation, migration, or phagocytosis",[5],"No effect on cell proliferation, migration, or phagocytosis"
same,Permeability Caco-2,[6],highly permeable
same,Pump substrate status P-gp,[6],Not substrate
